From patent US20090281099A1, “SUBSTITUTED PYRAZINONE DERIVATIVES FOR USE AS A MEDICINE” (priority 2006, published 2009) come the findings set out here.

One experiment concerns the target T1, hα2A receptor (Homo sapiens, UniProt P08913).
T1 construct: expressed in transfected cells
T1 sequence (P08913 1-465): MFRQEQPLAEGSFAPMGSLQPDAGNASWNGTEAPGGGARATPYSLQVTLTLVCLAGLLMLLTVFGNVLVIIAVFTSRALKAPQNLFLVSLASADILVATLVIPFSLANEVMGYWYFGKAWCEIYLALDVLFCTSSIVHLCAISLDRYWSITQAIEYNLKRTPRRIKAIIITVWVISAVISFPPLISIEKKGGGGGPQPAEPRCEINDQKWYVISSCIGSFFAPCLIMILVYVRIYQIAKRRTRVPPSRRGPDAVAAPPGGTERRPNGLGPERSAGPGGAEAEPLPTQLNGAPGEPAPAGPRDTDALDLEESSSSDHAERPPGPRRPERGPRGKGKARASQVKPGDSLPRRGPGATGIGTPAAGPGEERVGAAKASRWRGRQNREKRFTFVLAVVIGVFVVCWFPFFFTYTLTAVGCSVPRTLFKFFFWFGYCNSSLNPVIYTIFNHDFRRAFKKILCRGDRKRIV
Kind of experiment: Radioligand binding experiment for hα2A receptor ([3H]-raulwolscine, CHO cell membranes). As to conditions: [3H]raulwolscine 1 nM, membranes of CHO cells transfected with human α2A receptor; read-out: h-α2A pIC50 (converted).

The next experiment concerns the target T2, hα2C receptor (Homo sapiens, UniProt P18825).
T2 construct: expressed in transfected cells
T2 sequence (P18825 1-462): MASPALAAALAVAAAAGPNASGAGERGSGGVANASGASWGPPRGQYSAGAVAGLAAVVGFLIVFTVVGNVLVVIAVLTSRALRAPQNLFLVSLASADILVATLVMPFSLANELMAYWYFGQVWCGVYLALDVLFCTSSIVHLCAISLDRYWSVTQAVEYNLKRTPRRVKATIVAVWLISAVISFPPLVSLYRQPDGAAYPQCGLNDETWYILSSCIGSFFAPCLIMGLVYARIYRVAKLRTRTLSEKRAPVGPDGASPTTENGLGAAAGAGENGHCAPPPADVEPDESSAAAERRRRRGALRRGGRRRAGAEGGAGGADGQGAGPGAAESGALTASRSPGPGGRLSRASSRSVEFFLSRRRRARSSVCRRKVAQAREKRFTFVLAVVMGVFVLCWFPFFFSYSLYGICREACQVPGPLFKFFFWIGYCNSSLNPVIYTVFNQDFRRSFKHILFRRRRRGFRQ
The experiment in a line: Radioligand binding experiment for α2C-adrenoceptor ([3H]-raulwolscine, CHO cell membranes). The settings on record: [3H]raulwolscine 1 nM, membranes of CHO cells transfected with human α2C receptor; read-out: h-α2C pIC50 (converted).

Another experiment concerns the target T3, 5HT-Transporter (Homo sapiens, UniProt P31645).
T3 construct: Human platelet membranes (Oceanix Biosciences Corporation, Hanover, Md., USA) were thawed; tissue Oceanix Biosciences Corporation; host or cells: human platelet membranes
The experiment in a line: Binding experiment for the 5HT-transporter ([3H]paroxetine, human platelet membranes). As to conditions: [3H]paroxetine 0.5 nM, read-out: h-5HTT pIC50 (converted).

T3 sequence (P31645 whole entry): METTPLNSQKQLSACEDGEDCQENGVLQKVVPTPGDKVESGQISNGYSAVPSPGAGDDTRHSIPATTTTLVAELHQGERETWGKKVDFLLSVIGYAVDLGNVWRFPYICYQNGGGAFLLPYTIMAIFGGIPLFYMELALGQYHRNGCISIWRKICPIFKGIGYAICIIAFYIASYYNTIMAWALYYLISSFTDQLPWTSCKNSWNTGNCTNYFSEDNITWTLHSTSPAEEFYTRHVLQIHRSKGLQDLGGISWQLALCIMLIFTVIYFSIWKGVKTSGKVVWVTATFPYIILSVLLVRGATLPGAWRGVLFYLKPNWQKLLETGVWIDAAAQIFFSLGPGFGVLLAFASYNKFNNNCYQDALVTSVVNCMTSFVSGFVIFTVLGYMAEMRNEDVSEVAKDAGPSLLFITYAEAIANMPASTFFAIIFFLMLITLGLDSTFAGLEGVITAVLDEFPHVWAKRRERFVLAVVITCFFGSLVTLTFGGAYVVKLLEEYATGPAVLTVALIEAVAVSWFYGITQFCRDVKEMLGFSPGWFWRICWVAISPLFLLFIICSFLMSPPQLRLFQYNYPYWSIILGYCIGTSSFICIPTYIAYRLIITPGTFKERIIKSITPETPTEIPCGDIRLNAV

For the molecule `COC(=O)Cn1ccnc(NC2CCN(CCOc3ccccc3)CC2)c1=O` [Compound 3-2], the IC50 is 158 nM on hα2A receptor, 25.1 nM on hα2C receptor and > 10000 nM at 5HT-Transporter.

Regarding `CCOC(=O)CCCCn1ccnc(NC2CCN(CCOc3ccccc3)CC2)c1=O` [Compound 3-3], the values for the IC50 on hα2A receptor, at hα2C receptor and at 5HT-Transporter were 251 nM, 15.8 nM and 3160 nM, respectively.

Take `O=c1c(NC2CCN(CCOc3ccccc3)CC2)nccn1Cc1ccccc1Br` [Compound 4-1]: the IC50 was 158 nM on hα2A receptor, 7.94 nM on hα2C receptor and 2510 nM on 5HT-Transporter.

In the case of `O=c1c(NC2CCN(CCOc3ccccc3)CC2)nccn1Cc1cccc(Br)c1` [Compound 4-2], the results for the IC50 on hα2A receptor, on hα2C receptor and on 5HT-Transporter were 158 nM, 15.8 nM and 1580 nM, respectively.

Consider `O=c1c(NC2CCN(CCOc3ccccc3)CC2)nccn1Cc1ccc(Br)cc1` [Compound 4-3], for which the results for the IC50 on hα2A receptor, at hα2C receptor and at 5HT-Transporter were 100 nM, 20 nM and 794 nM, respectively.

With `O=c1c(NC2CCN(CCOc3ccccc3)CC2)nccn1CCc1ccccc1` [Compound 4-4], the values for the IC50 on hα2A receptor, on hα2C receptor and at 5HT-Transporter were 158 nM, 15.8 nM and 6310 nM, respectively.

As for `O=C(Cn1ccnc(NC2CCN(CCOc3ccccc3)CC2)c1=O)c1ccccc1` [Compound 4-6], the IC50 was 39.8 nM on hα2A receptor, 10 nM at hα2C receptor and 5010 nM at 5HT-Transporter.

As for `O=c1c(NC2CCN(CCOc3ccccc3)CC2)nccn1Cc1ccc2ccccc2c1` [Compound 4-7], the IC50 at hα2A receptor was 79.4 nM; at hα2C receptor, 20 nM; on 5HT-Transporter, 794 nM.

`O=c1[nH]ccnc1NC1CCN(CCOc2ccccc2)CC1` [Compound 5-1]: the IC50 on hα2A receptor is 398 nM; on hα2C receptor, 39.8 nM; on 5HT-Transporter, > 10000 nM.

In the case of `CCCn1ccnc(NC2CCN(CCOc3ccccc3)CC2)c1=O` [Compound 5-2], the values for the IC50 on hα2A receptor, on hα2C receptor and on 5HT-Transporter were 100 nM, 15.8 nM and > 10000 nM, respectively.

On to `O=c1c(NC2CCN(CCOc3ccccc3)CC2)nccn1CC1CCCCC1` [Compound 5-3], for which the results for the IC50 on hα2A receptor, at hα2C receptor and on 5HT-Transporter were 251 nM, 25.1 nM and 1000 nM, respectively.

Turning to `CC(=O)Cn1ccnc(NC2CCN(CCOc3ccccc3)CC2)c1=O` [Compound 5-4], the IC50 at hα2A receptor is 126 nM; on hα2C receptor, 31.6 nM; at 5HT-Transporter, > 10000 nM.

Take `CC(C)(C)C(=O)Cn1ccnc(NC2CCN(CCOc3ccccc3)CC2)c1=O` [Compound 5-5]: the IC50 was 158 nM on hα2A receptor, 7.94 nM on hα2C receptor and > 10000 nM on 5HT-Transporter.

With `O=c1c(NC2CCN(CCOc3ccccc3)CC2)nccn1CC1CCCCO1` (stereo not drawn) [Compound 6-1], the IC50 is 501 nM at hα2A receptor, 39.8 nM on hα2C receptor and > 10000 nM on 5HT-Transporter.

For `O=c1c(NC2CCN(CCOc3ccccc3)CC2)nccn1Cc1ccncc1` [Compound 6-2], the results for the IC50 at hα2A receptor, on hα2C receptor and at 5HT-Transporter were 398 nM, 39.8 nM and > 10000 nM, respectively.

As to `O=c1c(NC2CCN(CCOc3ccccc3)CC2)nccn1Cc1ccc2ccccc2n1` [Compound 6-3], the IC50 at hα2A receptor is 200 nM; at hα2C receptor, 7.94 nM; at 5HT-Transporter, 2510 nM.

For `NCc1ccc(Cn2ccnc(N3CCN(CCOc4ccc(F)cc4)CC3)c2=O)cc1` [Compound 7-1], the IC50 on hα2A receptor was 158 nM; at hα2C receptor, 63.1 nM; on 5HT-Transporter, 1260 nM.

Regarding `CN(C)C(=O)Cn1ccnc(N2CCN(CCOc3ccc(F)cc3)CC2)c1=O` [Compound 7-2], the IC50 was 316 nM on hα2A receptor, 501 nM at hα2C receptor and > 10000 nM at 5HT-Transporter.

As to `CC(C)(C)OC(=O)NCc1ccc(Cn2ccnc(N3CCN(CCOc4ccc(F)cc4)CC3)c2=O)cc1` [Compound 7-3], the IC50 at hα2A receptor was 398 nM; at hα2C receptor it was 251 nM; on 5HT-Transporter it was 2000 nM.

In the case of `O=c1c(N2CCN(CCOc3ccc(F)cc3)CC2)nccn1CCN1CCCCC1` [Compound 8-1], the IC50 is 631 nM on hα2A receptor, 100 nM on hα2C receptor and 7940 nM at 5HT-Transporter.

In the case of `O=C1c2ccccc2C(=O)N1CCCn1ccnc(N2CCN(CCOc3ccc(F)cc3)CC2)c1=O` [Compound 8-2], the IC50 on hα2A receptor is 100 nM; on hα2C receptor, 39.8 nM; at 5HT-Transporter, 631 nM.

Turning to `COCCCn1ccnc(N2CCN(CCOc3ccc(F)cc3)CC2)c1=O` [Compound 9-1], the IC50 is 1260 nM at hα2A receptor, 1000 nM on hα2C receptor and > 10000 nM at 5HT-Transporter.

In the case of `O=c1c(N2CCN(CCOc3ccc(F)cc3)CC2)nccn1CCOc1ccccc1` [Compound 9-2], the IC50 on hα2A receptor is 200 nM; at hα2C receptor, 251 nM; at 5HT-Transporter, 2510 nM.

In the case of `O=c1c(N2CCN(CCOc3ccc(F)cc3)CC2)nccn1CCOCc1ccccc1` [Compound 9-3], the values for the IC50 on hα2A receptor, at hα2C receptor and on 5HT-Transporter were 501 nM, 251 nM and 3980 nM, respectively.

As to `O=c1c(N2CCN(CCOc3ccc(F)cc3)CC2)nccn1Cc1ccccc1` [Compound 11-1], the IC50 was 100 nM on hα2A receptor, 200 nM at hα2C receptor and > 10000 nM on 5HT-Transporter.

In the case of `O=c1c(N2CCN(CCOc3ccc(F)cc3)CC2)nccn1CCCc1ccccc1` [Compound 11-2], the IC50 on hα2A receptor is 251 nM; on hα2C receptor, 631 nM; at 5HT-Transporter, 2000 nM.

For the molecule `O=c1c(N2CCN(CCOc3ccc(F)cc3)CC2)nccn1CC(c1ccccc1)c1ccccc1` [Compound 11-3], the IC50 on hα2A receptor was 251 nM; on hα2C receptor, 316 nM; on 5HT-Transporter, 7940 nM.

`O=c1c(N2CCN(CCOc3ccc(F)cc3)CC2)nccn1C/C=C/c1ccccc1` [Compound 11-4]: the values for the IC50 on hα2A receptor, on hα2C receptor and on 5HT-Transporter were 251 nM, 200 nM and 1580 nM, respectively.

With `O=C(Cn1ccnc(N2CCN(CCOc3ccc(F)cc3)CC2)c1=O)c1ccccc1` [Compound 11-5], the IC50 on hα2A receptor is 158 nM; on hα2C receptor, 158 nM; on 5HT-Transporter it was 3980 nM.

As to `O=c1c(N2CCN(CCOc3ccc(F)cc3)CC2)nccn1Cc1ccc(-c2ccccc2)cc1` [Compound 11-6], the IC50 on hα2A receptor was 316 nM; at hα2C receptor it was 251 nM; at 5HT-Transporter, 1000 nM.

With `O=c1c(N2CCN(CCOc3ccc(F)cc3)CC2)nccn1Cc1ccc2ccccc2c1` [Compound 11-8], the IC50 at hα2A receptor was 126 nM; at hα2C receptor, 126 nM; on 5HT-Transporter, 2000 nM.

In the case of `O=c1c(N2CCN(CCOc3ccc(F)cc3)CC2)nccn1Cc1ccco1` [Compound 12-1], the IC50 on hα2A receptor is 200 nM; at hα2C receptor it was 251 nM; at 5HT-Transporter, > 10000 nM.

In the case of `O=c1c(N2CCN(CCOc3ccc(F)cc3)CC2)nccn1Cc1ccc(Cl)s1` [Compound 12-2], the values for the IC50 at hα2A receptor, on hα2C receptor and at 5HT-Transporter were 200 nM, 79.4 nM and 6310 nM, respectively.

As to `Cc1nc(Cn2ccnc(N3CCN(CCOc4ccc(F)cc4)CC3)c2=O)cs1` [Compound 12-3], the values for the IC50 on hα2A receptor, on hα2C receptor and on 5HT-Transporter were 251 nM, 316 nM and > 10000 nM, respectively.

`COc1ccc(-c2nnc(Cn3ccnc(N4CCN(CCOc5ccc(F)cc5)CC4)c3=O)o2)cc1` [Compound 12-4]: the IC50 was 158 nM on hα2A receptor, 158 nM on hα2C receptor and 794 nM on 5HT-Transporter.
